Measured values as given in the NIST ThermoML archive (doi:10.1016/j.fluid.2013.05.022).
Numbers after ± are expanded uncertainties.

Assays:
[1] = refractive index (Na D-line) (dimensionless); conditions: 298.15 K; 859 kPa; Liquid; Standard Abbe refractometry
[2] = 298.15 K; 85.9 kPa; Liquid; Vibrating tube method

With `CN(C)C=O` [dimethylformamide] as the compound, how does the refractive index [1] read?
The refractive index was 1.4281 ± 0.0004.

And the mass density [2]?
Its mass density is 944.53 ± 1 kg/m3.
